Test results: patent US20090029982A1, “PROTEIN KINASE INHIBITORS” (SUPERGEN, INC., priority 2005, published 2009)

Tests used:
[1] = system: HT-29 human colon cancer cells; assay: HT-29 xenograft study in mice; type: in vivo; details: 25 mg/kg intraperitoneally, q.d.×5 for two weeks
Protocol: In order to evaluate the effectiveness of MP277 against tumor cells in a living system, a xenograft study was performed in mice. 1×10^7 HT-29 human colon cancer cells were injected subcutaneously into 16 Nu/Nu athymic nude mice (Charles River Laboratories, Wilmington, Mass.). Tumor volume was measured according to the formula ((Width)^2*Length)/2. Tumors were allowed to grow to approximately 100 mm^3 in volume (Day 0), at which point mice were randomized to two groups: Eight mice were treated with 25 mg/kg MP277, while the other eight were given an equal volume of drug vehicle. For this study, the drug vehicle used was 60% propylene glycol, 30% polyethylene glycol 300, 10% ethanol with 150 mg/mL 2-hydroxypropyl-beta-cyclodextrin. Each mouse received 0.1 mL of drug or vehicle intraperitoneally on a q.d.×5 schedule for two weeks, with two days rest between cycles.

[2] = molecular target: T1, recombinant aurora-2 kinase (Homo sapiens, UniProt O14965); assay: aurora-2 kinase inhibition assay (Kinase-Glo, ATP remaining); type: biochemical; details: Example 20, Table 2; 3 μM ATP, 62.5 μM Kemptide, 30° C., two hours; read-out: IC50 A2K
T1 construct: purchased Upstate, Lake Placid, N.Y; host or cells: sf9 cells
T1 sequence (O14965 1-403): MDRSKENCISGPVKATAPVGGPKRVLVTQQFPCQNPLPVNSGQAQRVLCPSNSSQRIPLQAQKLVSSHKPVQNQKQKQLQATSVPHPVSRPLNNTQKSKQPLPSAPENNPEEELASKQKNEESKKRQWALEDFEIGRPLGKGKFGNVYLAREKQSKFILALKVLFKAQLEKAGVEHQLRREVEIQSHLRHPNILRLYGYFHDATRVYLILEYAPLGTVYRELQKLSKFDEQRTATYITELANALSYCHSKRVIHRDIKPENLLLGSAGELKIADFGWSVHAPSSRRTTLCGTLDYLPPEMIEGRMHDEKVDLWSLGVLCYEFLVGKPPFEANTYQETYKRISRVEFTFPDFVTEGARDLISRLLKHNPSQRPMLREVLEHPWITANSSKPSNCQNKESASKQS
Protocol: In this assay kinase activity was determined by quantifying the amount of ATP remaining in solution following a kinase reaction by measuring the light units (LU) produced by luciferase using a luminometer. Percent inhibition was determined for individual compounds by comparing luminometer readings of drug-treated reactions to controls containing no drug (DMSO control) and no Aurora-2 enzyme (ATP control) in the following equation: […]
In a 50 μl reaction, recombinant aurora-2 kinase produced in sf9 cells (Upstate, Lake Placid, N.Y.) was incubated at 30° C. for two hours with 62.5 μM Kemptide (Calbiochem, San Diego, Calif.), 3 μM ATP (Invitrogen, Carlsbad, Calif.) and kinase reaction buffer (40 mM Tris-HCl, 10 mM MgCl2 and 0.1 μg/μl bovine serum albumin (BSA)). This reaction was carried out in the presence of drug substances, which had been previously diluted to desired concentrations in DMSO. […] Kinase activity is determined by quantifying the amount of ATP remaining in solution following the kinase reaction by measuring the light units (LU) produced by luciferase using a luminometer (Thermo-Electron, Vantaa, Finland).
Briefly, kinase activity was determined by quantifying the amount of ATP remaining in solution following a kinase reaction by measuring the light units (LU) produced by luciferase using a luminometer. […]

| IC50 [2] | Compound | toxicity noted through the duration of the study ([1]; nude mice) | inhibition of tumor growth in vivo ([1]; subcutaneous HT-29 xenograft, FIG. 1) |
| --- | --- | --- | --- |
| – | CC(=O)NS(=O)(=O)c1ccc(NC(=S)N2CCN(c3ncnc4[nH]c5cc(C(F)(F)F)c(Cl)cc5c34)CC2)cc1 [Compound 1, 4-(6-Chloro-7-trifluoromethyl-9H-pyrimido[4,5-b]indol-4-yl)-piperazine-1-carbothioic acid (4-acetylsulfamoyl-phenyl)-amide] | No noticeable toxicity | effective for inhibiting tumor growth in vivo |
| 5 nM | COc1cc2[nH]c3ncnc(N4CCN(C(=S)Nc5ccc(S(=O)(=O)NC(C)=O)cc5)CC4)c3c2cc1OC [Compound 2] | – | – |
